Data: paper PMC9481151, “Discovery of new symmetrical and asymmetrical nitrile-containing 1,4-dihydropyridine derivatives as dual kinases and P-glycoprotein inhibitors: synthesis, in vitro assays, and in silico studies” (Journal of Enzyme Inhibition and Medicinal Chemistry, 2022)

How the values were obtained:
SF-295 = assay: NCI single dose (10 µM) SRB screen; type: cell-based, human; conditions: CNS cancer, 48 h
HCT-15 = assay: NCI single dose (10 µM) SRB screen; type: cell-based, human; conditions: colon cancer, 48 h
NCI/ADR-RES = assay: NCI single dose (10 µM) SRB screen; type: cell-based, human; conditions: ovarian cancer, 48 h
Pseudomonas aeruginosa = assay: Agar well diffusion method; conditions: relative to ciprofloxacin
KM12 = assay: NCI single dose (10 µM) SRB screen; type: cell-based, human; conditions: colon cancer, 48 h
TK-10 = assay: NCI single dose (10 µM) SRB screen; type: cell-based, human; conditions: renal cancer, 48 h
UACC-62 = assay: NCI single dose (10 µM) SRB screen; type: cell-based, human; conditions: melanoma, 48 h
M14 = assay: NCI single dose (10 µM) SRB screen; type: cell-based, human; conditions: melanoma, 48 h
Staphylococcus aureus = assay: Agar well diffusion method; conditions: relative to ciprofloxacin
OVCAR-8 = assay: NCI single dose (10 µM) SRB screen; type: cell-based, human; conditions: ovarian cancer, 48 h
RXF 393 = assay: NCI single dose (10 µM) SRB screen; type: cell-based, human; conditions: renal cancer, 48 h
NCI-H522 = assay: NCI single dose (10 µM) SRB screen; type: cell-based, human; conditions: non-small cell lung cancer, 48 h
U251 = assay: NCI single dose (10 µM) SRB screen; type: cell-based, human; conditions: CNS cancer, 48 h
PC-3 = assay: NCI single dose (10 µM) SRB screen; type: cell-based, human; conditions: prostate cancer, 48 h
UACC-257 = assay: NCI single dose (10 µM) SRB screen; type: cell-based, human; conditions: melanoma, 48 h
SK-MEL-5 = assay: NCI single dose (10 µM) SRB screen; type: cell-based, human; conditions: melanoma, 48 h
K-562 = assay: NCI single dose (10 µM) SRB screen; type: cell-based, human; conditions: leukaemia, 48 h
LOX IMVI = assay: NCI single dose (10 µM) SRB screen; type: cell-based, human; conditions: melanoma, 48 h
HL-60(TB) = assay: NCI single dose (10 µM) SRB screen; type: cell-based, human; conditions: leukaemia, 48 h
IGROV1 = assay: NCI single dose (10 µM) SRB screen; type: cell-based, human; conditions: ovarian cancer, 48 h
COLO 205 = assay: NCI single dose (10 µM) SRB screen; type: cell-based, human; conditions: colon cancer, 48 h
MCF7 = assay: NCI single dose (10 µM) SRB screen; type: cell-based, human; conditions: breast cancer, 48 h
T-47D = assay: NCI single dose (10 µM) SRB screen; type: cell-based, human; conditions: breast cancer, 48 h
CCRF-CEM = assay: NCI single dose (10 µM) SRB screen; type: cell-based, human; conditions: leukaemia, 48 h
MDA-MB-435 = assay: NCI single dose (10 µM) SRB screen; type: cell-based, human; conditions: melanoma, 48 h
NCI-H460 = assay: NCI single dose (10 µM) SRB screen; type: cell-based, human; conditions: non-small cell lung cancer, 48 h
A498 = assay: NCI single dose (10 µM) SRB screen; type: cell-based, human; conditions: renal cancer, 48 h
RPMI-8226 = assay: NCI single dose (10 µM) SRB screen; type: cell-based, human; conditions: leukaemia, 48 h
NCI-H226 = assay: NCI single dose (10 µM) SRB screen; type: cell-based, human; conditions: non-small cell lung cancer, 48 h
HCC-2998 = assay: NCI single dose (10 µM) SRB screen; type: cell-based, human; conditions: colon cancer, 48 h
MDA-MB-468 = assay: NCI single dose (10 µM) SRB screen; type: cell-based, human; conditions: breast cancer, 48 h
SK-OV-3 = assay: NCI single dose (10 µM) SRB screen; type: cell-based, human; conditions: ovarian cancer, 48 h
MDA-MB-231 = assay: NCI single dose (10 µM) SRB screen; type: cell-based, human; conditions: breast cancer, 48 h
EKVX = assay: NCI single dose (10 µM) SRB screen; type: cell-based, human; conditions: non-small cell lung cancer, 48 h
SW-620 = assay: NCI single dose (10 µM) SRB screen; type: cell-based, human; conditions: colon cancer, 48 h
SK-MEL-2 = assay: NCI single dose (10 µM) SRB screen; type: cell-based, human; conditions: melanoma, 48 h
OVCAR-5 = assay: NCI single dose (10 µM) SRB screen; type: cell-based, human; conditions: ovarian cancer, 48 h
HCT-116 = assay: NCI single dose (10 µM) SRB screen; type: cell-based, human; conditions: colon cancer, 48 h
SF-539 = assay: NCI single dose (10 µM) SRB screen; type: cell-based, human; conditions: CNS cancer, 48 h
HOP-62 = assay: NCI single dose (10 µM) SRB screen; type: cell-based, human; conditions: non-small cell lung cancer, 48 h
A549/ATCC = assay: NCI single dose (10 µM) SRB screen; type: cell-based, human; conditions: non-small cell lung cancer, 48 h
DU-145 = assay: NCI single dose (10 µM) SRB screen; type: cell-based, human; conditions: prostate cancer, 48 h
SNB-75 = assay: NCI single dose (10 µM) SRB screen; type: cell-based, human; conditions: CNS cancer, 48 h
OVCAR-4 = assay: NCI single dose (10 µM) SRB screen; type: cell-based, human; conditions: ovarian cancer, 48 h
HOP-92 = assay: NCI single dose (10 µM) SRB screen; type: cell-based, human; conditions: non-small cell lung cancer, 48 h
OVCAR-3 = assay: NCI single dose (10 µM) SRB screen; type: cell-based, human; conditions: ovarian cancer, 48 h
MALME-3M = assay: NCI single dose (10 µM) SRB screen; type: cell-based, human; conditions: melanoma, 48 h
Bacillus subtilis = assay: Agar well diffusion method; conditions: relative to ciprofloxacin
UO-31 = assay: NCI single dose (10 µM) SRB screen; type: cell-based, human; conditions: renal cancer, 48 h
Candida albicans = assay: Agar well diffusion method; conditions: relative to clotrimazole
MOLT-4 = assay: NCI single dose (10 µM) SRB screen; type: cell-based, human; conditions: leukaemia, 48 h
NCI 60 cancer cell lines = assay: NCI single dose (10 µM) SRB screen, mean over panel; type: cell-based, human; conditions: mean over 60 cell lines, 48 h
HS578T = assay: NCI single dose (10 µM) SRB screen; type: cell-based, human; conditions: breast cancer, 48 h
BT-549 = assay: NCI single dose (10 µM) SRB screen; type: cell-based, human; conditions: breast cancer, 48 h
SK-MEL-28 = assay: NCI single dose (10 µM) SRB screen; type: cell-based, human; conditions: melanoma, 48 h
Aspergillus flavus = assay: Agar well diffusion method; conditions: relative to clotrimazole
CAKI-1 = assay: NCI single dose (10 µM) SRB screen; type: cell-based, human; conditions: renal cancer, 48 h
SN12C = assay: NCI single dose (10 µM) SRB screen; type: cell-based, human; conditions: renal cancer, 48 h
SNB-19 = assay: NCI single dose (10 µM) SRB screen; type: cell-based, human; conditions: CNS cancer, 48 h
SF-268 = assay: NCI single dose (10 µM) SRB screen; type: cell-based, human; conditions: CNS cancer, 48 h
SR = assay: NCI single dose (10 µM) SRB screen; type: cell-based, human; conditions: leukaemia, 48 h
NCI-H23 = assay: NCI single dose (10 µM) SRB screen; type: cell-based, human; conditions: non-small cell lung cancer, 48 h
HT29 = assay: NCI single dose (10 µM) SRB screen; type: cell-based, human; conditions: colon cancer, 48 h
786-0 = assay: NCI single dose (10 µM) SRB screen; type: cell-based, human; conditions: renal cancer, 48 h
Escherichia coli = assay: Agar well diffusion method; conditions: relative to ciprofloxacin
ACHN = assay: NCI single dose (10 µM) SRB screen; type: cell-based, human; conditions: renal cancer, 48 h
NCI-H322M = assay: NCI single dose (10 µM) SRB screen; type: cell-based; conditions: non-small cell lung cancer, 48 h

CC1=C(C(=O)OCC(C)C)C(c2cccc(C#N)c2)C(C(=O)OCC(C)C)=C(C)N1 [Compound 1d, Diisobutyl 4-(3-cyanophenyl)-2,6-dimethyl-1,4-dihydropyridine-3,5-dicarboxylate]
GI% SF-295 (SF-295): 32% | GI% HCT-15 (HCT-15): 31% | GI% NCI/ADR-RES (NCI/ADR-RES): 20% | % activity index, P. aeruginosa (Pseudomonas aeruginosa): – (Values below 25 are of limited value and not shown as they refer either to inactive or non-diffusing compounds) | GI% KM12 (KM12): 24% | GI% TK-10 (TK-10): – (Only GI% ≥ 10 are shown) | GI% UACC-62 (UACC-62): 23% | GI% M14 (M14): – (Only GI% ≥ 10 are shown) | % activity index, S. aureus (Staphylococcus aureus): – (Values below 25 are of limited value and not shown as they refer either to inactive or non-diffusing compounds) | GI% OVCAR-8 (OVCAR-8): 11% | GI% RXF 393 (RXF 393): 42% | GI% NCI-H522 (NCI-H522): 21% | GI% U251 (U251): 21% | GI% PC-3 (PC-3): 57% | GI% UACC-257 (UACC-257): 17% | GI% SK-MEL-5 (SK-MEL-5): 17% | GI% K-562 (K-562): 44% | GI% LOX IMVI (LOX IMVI): 10% | GI% HL-60(TB) (HL-60(TB)): 30% | GI% IGROV1 (IGROV1): – (Only GI% ≥ 10 are shown) | GI% COLO 205 (COLO 205): – (Only GI% ≥ 10 are shown) | GI% MCF7 (MCF7): 39% | GI% T-47D (T-47D): 54% | GI% CCRF-CEM (CCRF-CEM): 32% | GI% MDA-MB-435 (MDA-MB-435): – (Only GI% ≥ 10 are shown) | GI% NCI-H460 (NCI-H460): 13% | GI% A498 (A498): 17% | GI% RPMI-8226 (RPMI-8226): 35% | GI% NCI-H226 (NCI-H226): 25% | GI% HCC-2998 (HCC-2998): – (Only GI% ≥ 10 are shown) | GI% MDA-MB-468 (MDA-MB-468): 30% | GI% SK-OV-3 (SK-OV-3): – (Only GI% ≥ 10 are shown) | GI% MDA-MB-231 (MDA-MB-231): 17% | GI% EKVX (EKVX): 27% | GI% SW-620 (SW-620): – (Only GI% ≥ 10 are shown) | GI% SK-MEL-2 (SK-MEL-2): 14% | GI% OVCAR-5 (OVCAR-5): – (Only GI% ≥ 10 are shown) | GI% HCT-116 (HCT-116): 32% | GI% SF-539 (SF-539): 12% | GI% HOP-62 (HOP-62): 12% | GI% A549/ATCC (A549/ATCC): 25% | GI% DU-145 (DU-145): – (Only GI% ≥ 10 are shown) | GI% SNB-75 (SNB-75): 32% | GI% OVCAR-4 (OVCAR-4): 16% | GI% HOP-92 (HOP-92): 37% | GI% OVCAR-3 (OVCAR-3): 10% | GI% MALME-3M (MALME-3M): – (Only GI% ≥ 10 are shown) | % activity index, B. subtilis (Bacillus subtilis): – (Values below 25 are of limited value and not shown as they refer either to inactive or non-diffusing compounds) | GI% UO-31 (UO-31): 20% | % activity index, C. albicans (Candida albicans): – (Values below 25 are of limited value and not shown as they refer either to inactive or non-diffusing compounds) | GI% MOLT-4 (MOLT-4): 57% | Mean GI% (NCI 60 cancer cell lines): 19% | GI% HS578T (HS578T): 25% | GI% BT-549 (BT-549): – (Only GI% ≥ 10 are shown) | GI% SK-MEL-28 (SK-MEL-28): – (Only GI% ≥ 10 are shown) | % activity index, A. flavus (Aspergillus flavus): – (Values below 25 are of limited value and not shown as they refer either to inactive or non-diffusing compounds) | GI% CAKI-1 (CAKI-1): 38% | GI% SN12C (SN12C): 10% | GI% SNB-19 (SNB-19): – (Only GI% ≥ 10 are shown) | GI% SF-268 (SF-268): 25% | GI% SR (SR): 52% | GI% NCI-H23 (NCI-H23): 14% | GI% HT29 (HT29): 12% | GI% 786-0 (786-0): 18% | melting point: 146 to 148 °C | % activity index, E. coli (Escherichia coli): – (Values below 25 are of limited value and not shown as they refer either to inactive or non-diffusing compounds) | GI% ACHN (ACHN): 16% | GI% NCI-H322M (NCI-H322M): – (Only GI% ≥ 10 are shown)
